PMC11679724, “Novel Quinoline- and Naphthalene-Incorporated Hydrazineylidene–Propenamide Analogues as Antidiabetic Agents: Design, Synthesis, and Computational Studies” (Pharmaceuticals, 2024)

Key:
[1] = molecular target: T1, Porcine pancreatic amylase (Sus scrofa, UniProt P00690); test: In vitro α-amylase inhibition assay (starch substrate); assay type: biochemical; settings: mean ± SE; starch 1%
T1 sequence (P00690 16-511): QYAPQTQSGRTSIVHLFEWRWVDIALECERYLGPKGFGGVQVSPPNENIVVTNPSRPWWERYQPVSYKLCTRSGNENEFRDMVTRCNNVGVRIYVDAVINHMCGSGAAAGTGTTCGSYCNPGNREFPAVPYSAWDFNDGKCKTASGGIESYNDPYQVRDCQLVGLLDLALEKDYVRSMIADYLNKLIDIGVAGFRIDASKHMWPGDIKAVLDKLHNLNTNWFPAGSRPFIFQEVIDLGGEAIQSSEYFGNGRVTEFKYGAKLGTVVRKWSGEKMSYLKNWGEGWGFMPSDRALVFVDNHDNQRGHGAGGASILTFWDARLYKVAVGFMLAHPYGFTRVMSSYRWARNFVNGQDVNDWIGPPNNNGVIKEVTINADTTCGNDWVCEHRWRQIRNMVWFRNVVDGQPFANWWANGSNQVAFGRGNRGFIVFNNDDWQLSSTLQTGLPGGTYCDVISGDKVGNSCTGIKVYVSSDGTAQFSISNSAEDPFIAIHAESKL
Protocol: (§1) Porcine pancreatic amylase, yeast α-glucosidase, and human recombinant aldose reductase were tested for enzyme inhibition using various substrates, such as starch (1%), pNPG (0.5 mM), and DL-glyceraldehyde (5 mM) for each enzyme. By comparing changes in the test sample absorbance levels to control values and computing inhibition percentages using the following formula, the degree of inhibition was ascertained: Inhibition (%) = [A×(control)] − [{A × (sample)}/{A × (control)} × 100].

[2] = molecular target: human recombinant aldose reductase (Homo sapiens, UniProt P15121); test: In vitro aldose reductase inhibition assay (DL-glyceraldehyde substrate); assay type: biochemical
Protocol: as §1

α-amylase (PDB-ID 1DHK) = tested on: α-amylase (PDB-ID 1DHK); design: method as in doi:10.3390/separations9090262, PMID 35335251; settings: docking of previous study; cited from earlier work
[3] = tested on: α-glucosidase (PDB ID: 3A4A); design: method as in doi:10.3390/separations9090262, PMID 35335251; settings: docking of previous study; cited from earlier work
[4] = tested on: aldose reductase (PDB ID: 1IEI); design: method as in doi:10.3390/separations9090262, PMID 35335251; settings: docking of previous study; cited from earlier work
[5] = mean ± SE, DL-glyceraldehyde 5 mM

Row | Compound | IC50 [1] [µM] | IC50 [2, 5] [µM] | binding affinity against α-amylase (α-amylase (PDB-ID 1DHK)) [kcal/mol] | binding affinity against α-glucosidase [3] [kcal/mol] | binding affinity against aldose reductase [4] [kcal/mol] | IC50 ([2]; µg/mL value restated in µM) [µM]
1 | CCNC(=NNC(=O)COc1ccc2ccccc2c1)C(C#N)C(=O)Nc1ccc(C(N)=O)cc1 (centres unmarked) [Compound 7c, 4-(2-cyano-3-(ethylamino)-3-(2-(2-(naphthalen-2-yloxy)acetyl)hydrazineylidene)propanamido)benzamide] | 57.1 | 50.8 |  |  |  | 
2 | O=C(O)/C=C/c1ccc(O)c(O)c1 [caffeic acid] |  |  | -8.1 | -8.2 | -7.4 | 
3 | CCN/C(=N\NC(=O)COc1ccc2ccccc2c1)C(C#N)C(=O)Nc1ccc(C(C)=O)cc1 (centres unmarked) [Compound 7f, N-(4-acetylphenyl)-2-cyano-3-(ethylamino)-3-(2-(2-(naphthalen-2-yloxy)acetyl) hydrazineylidene)propenamide] | 61.8 | 42.8 |  |  |  | 
4 | N#CC(C(=O)Nc1ccc(C(N)=O)cc1)C(=NNC(=O)COc1ccnc2ccccc12)Nc1ccccc1 (centres unmarked) [Compound 7b, 4-(2-cyano-3-(phenylamino)-3-(2-(2-(quinolin-4-yloxy)acetyl)hydrazineylidene)propanamido)benzamide] | 37.3 | 40.6 |  |  |  | 
5 | CCN/C(=N\NC(=O)COc1ccnc2ccccc12)C(C#N)C(=O)Nc1ccc(C(C)=O)cc1 (centres unmarked) [Compound 7g, N-(4-acetylphenyl)-2-cyano-3-(ethylamino)-3-(2-(2-(quinolin-4-yloxy)acetyl) hydrazineylidene)propenamide] | 36.3 | 25.7 |  |  |  | 25.8
6 | CC(=O)c1ccc(NC(=O)C(C#N)/C(=N/NC(=O)COc2ccnc3ccccc23)Nc2ccccc2)cc1 (centres unmarked) [Compound 7e, N-(4-acetylphenyl)-2-cyano-3-(phenylamino)-3-(2-(2-(quinolin-4-yloxy)acetyl) hydrazineylidene)propenamide] | 38.4 | 43 |  |  |  | 
7 | N#CC(C(=O)Nc1ccc(C(N)=O)cc1)C(=NNC(=O)COc1ccc2ccccc2c1)Nc1ccccc1 (centres unmarked) [Compound 7a, 4-(2-cyano-3-(2-(2-(naphthalen-2-yloxy)acetyl)hydrazineylidene)-3-(phenylamino)propanamido)benzamide] | 43.1 | 42.6 |  |  |  | 
8 | CS/C(Nc1ccccc1)=C(\C#N)C(=O)Nc1ccc(C(N)=O)cc1 [Compound 5a] | 94 | 71.3 |  |  |  | 
9 | CC(=O)c1ccc(NC(=O)C(C#N)/C(=N/NC(=O)COc2ccc3ccccc3c2)Nc2ccccc2)cc1 (centres unmarked) [Compound 7d, N-(4-acetylphenyl)-2-cyano-3-(2-(2-(naphthalen-2-yloxy)acetyl)hydrazineylidene)-3-(phenylamino)propenamide] | 45.7 | 33.6 |  |  |  | 
